Experimental data from publication PMC8126888 (RSC Medicinal Chemistry, 2020).
Read-outs that look alike come from different tables or passages of the source.

Legend:
in vitro [1] = conditions: PAMPA
[2] = test system: primary peritoneal mouse macrophages (PMM); conditions: PMM IC50 / L. infantum IC50
[3] = test system: Leishmania infantum MHOM/MA(BE)/67/ITMAP263 intracellular amastigotes; assay: microbe, parasite or virus in culture; conditions: Macrophage, in Mus musculus
in vitro [4] = conditions: human
in vitro [5] = conditions: mouse, microsomes, pH 7.4, MLM CLint, mouse liver microsomes
in vitro [6] = conditions: Swiss, mouse
[7] = test system: Trypanosoma cruzi, Tulahuen CL2, beta-galactosidase strain; assay: microbe, parasite or virus in culture; conditions: MRC5, read-out: T. cruzi Tulahuen C4 (LacZ) IC50
physchem = conditions: HPLC, Ascentis Express RP Amide column, pH 7.4, eLogD
in vitro [8] = conditions: human, microsomes, pH 7.4, HLM CLint, human liver microsomes
[9] = read-out: L. Inf. pIC50, from L. infantum intracellular amastigote IC50 (converted)
[10] = read-out: L. infantum MHOM/MA(BE)/67/ITMAP263 intracellular amastigotes IC50

SMILES	Papp (in vitro [1])	SI (vs PMM) [2]	IC50 [3, 9]	IC50 [3, 10]	CC50 at 3 days (in vitro [4])	microsomal CLint at 0.5 μM (in vitro [5])	IC50 (in vitro [6])	IC50 [7]	chromatographic logD (physchem)	microsomal CLint at 0.5 μM (in vitro [8])
CCN(Cc1ccccc1)S(=O)(=O)c1ccccc1C#N [DNDI0002574585]	16.6 ×10⁻⁶ cm/s	2	25.7 µM	25.6 µM	> 64 µM	1060 µL/min/mg	> 64 µM	29.3 µM	3.5	306 µL/min/mg
CCN(Cc1ccccc1)S(=O)(=O)c1ccc(C)cc1 [DNDI0003297129]	5.38 ×10⁻⁶ cm/s	1	49 µM	49.4 µM	> 64 µM	–	> 64 µM	28.8 µM	4.1	1740 µL/min/mg
CCN(Cc1ccccc1)S(=O)(=O)c1ccc(OC)cc1 [DNDI0003297130]	7.68 ×10⁻⁶ cm/s	6	11 µM	11 µM	> 64 µM	3010 µL/min/mg	> 64 µM	18.5 µM	3.9	676 µL/min/mg
CCC(Cc1ccccc1)Sc1nc(C)cc(C)c1C#N (stereo not shown) [DNDI0003297457]	0.19 ×10⁻⁶ cm/s	15	2.63 µM	2.64 µM	> 64 µM	1900 µL/min/mg	40.3 µM	6.9 µM	5.4	2010 µL/min/mg
CCC(Cc1ccccc1)[S+]([O-])c1nc(C)cc(C)c1C#N (stereo not shown) [DNDI0003297458]	13.4 ×10⁻⁶ cm/s	1	47.9 µM	47.6 µM	> 64 µM	1560 µL/min/mg	> 64 µM	> 64 µM	3.2	1230 µL/min/mg
CC[C@H](Cc1ccccc1)[S+]([O-])c1ccccc1OC (stereo partly shown) [DNDI0003362001]	9.42 ×10⁻⁶ cm/s	1	52.5 µM	52.5 µM	> 64 µM	3620 µL/min/mg	> 64 µM	31.5 µM	3.7	390 µL/min/mg
CC[C@H](Cc1ccccc1)S(=O)(=O)c1ccccc1OC [DNDI0003362003]	19.8 ×10⁻⁶ cm/s	2	34.7 µM	34.6 µM	> 64 µM	1060 µL/min/mg	> 64 µM	31.7 µM	3.5	458 µL/min/mg
O=S(=O)(NCc1ccccc1)c1ccccc1 [DNDI0003363562]	21.6 ×10⁻⁶ cm/s	1	> 64 µM	> 64 µM	> 64 µM	161 µL/min/mg	> 64 µM	> 64 µM	2.9	50 µL/min/mg
CCN(Cc1ccccc1)S(=O)(=O)c1ccccc1 [DNDI0003363563]	7.54 ×10⁻⁶ cm/s	1	> 64 µM	> 64 µM	> 64 µM	1180 µL/min/mg	> 64 µM	32.1 µM	3.8	418 µL/min/mg
CCN(Cc1ccccc1)S(=O)(=O)c1ccccc1OC [DNDI0003363820]	18.5 ×10⁻⁶ cm/s	6	11 µM	11 µM	36.3 µM	1370 µL/min/mg	> 64 µM	30.1 µM	3.6	406 µL/min/mg
COCCN(Cc1ccccc1)S(=O)(=O)c1ccccc1 [DNDI0003363821]	25.3 ×10⁻⁶ cm/s	2	40.7 µM	40.5 µM	> 64 µM	2990 µL/min/mg	> 64 µM	39.3 µM	3.5	239 µL/min/mg
CCN(Cc1ccccc1)S(=O)(=O)c1cc(Cl)ccc1OC [DNDI0003364251]	3.74 ×10⁻⁶ cm/s	12	5.5 µM	5.52 µM	53.2 µM	1260 µL/min/mg	> 64 µM	9.1 µM	4.3	304 µL/min/mg
CCN(Cc1ccccc1)S(=O)(=O)c1ccccc1OC(F)(F)F [DNDI0003364252]	1.18 ×10⁻⁶ cm/s	8	8.51 µM	8.47 µM	> 64 µM	2340 µL/min/mg	> 64 µM	22.4 µM	4.5	1180 µL/min/mg
CCN(Cc1ccccc1)S(=O)(=O)c1ccc(NC(C)=O)cc1 [DNDI0003364473]	13.6 ×10⁻⁶ cm/s	1	> 64 µM	> 64 µM	> 64 µM	398 µL/min/mg	> 64 µM	33.1 µM	3.5	205 µL/min/mg
COc1ccc(Cl)cc1S(=O)(=O)N(Cc1ccccc1)OC [DNDI0003364476]	5.91 ×10⁻⁶ cm/s	3	24.5 µM	24.7 µM	> 64 µM	1890 µL/min/mg	> 64 µM	7.86 µM	4.3	265 µL/min/mg
CCN(Cc1ccccc1)S(=O)(=O)c1cc(F)ccc1N1CCCC1 [DNDI0003364614]	0.34 ×10⁻⁶ cm/s	4	12.9 µM	12.9 µM	> 64 µM	3000 µL/min/mg	50.8 µM	7.33 µM	4.9	1470 µL/min/mg
O=S(=O)(NCc1ccccc1)c1cc(F)ccc1F [DNDI0003365406]	30.4 ×10⁻⁶ cm/s	1	49 µM	49.4 µM	> 64 µM	260 µL/min/mg	> 64 µM	> 64 µM	3.2	75 µL/min/mg
CCN(Cc1ccccc1)S(=O)(=O)c1cc(OC)ccc1OC [DNDI0003365407]	11.9 ×10⁻⁶ cm/s	25	2.51 µM	2.53 µM	> 64 µM	3500 µL/min/mg	> 64 µM	27.4 µM	–	534 µL/min/mg
COc1ccc(Cl)cc1S(=O)(=O)N(CCO)Cc1ccccc1 [DNDI0003366068]	20.1 ×10⁻⁶ cm/s	2	37.2 µM	37.5 µM	> 64 µM	–	> 64 µM	26.8 µM	3.5	180 µL/min/mg
